{"source": "ChEMBL document CHEMBL1201862", "about": "“PubChem BioAssay data set” (2004)", "experiment_in_all_cases": "inhibition of tumour cell growth, NCI panel, 48 h", "key": {"[1]": {"system": "A549"}, "[2]": {"system": "KM-20L2"}, "[3]": {"system": "SW-620"}, "[4]": {"system": "NCI-H522"}, "[5]": {"system": "786-0"}, "[6]": {"system": "OVCAR-3"}, "[7]": {"system": "HOP-62"}, "[8]": {"system": "SF-539"}, "[9]": {"system": "HCT-15"}, "[10]": {"system": "CCRF-CEM"}, "[11]": {"system": "OVCAR-8"}, "[12]": {"system": "HOP-18"}, "[13]": {"system": "NCI-H460"}, "[14]": {"system": "KM12"}, "[15]": {"system": "MOLT-4"}, "[16]": {"system": "DMS-114"}, "[17]": {"system": "ACHN"}, "[18]": {"system": "UO-31"}, "[19]": {"system": "M19-MEL"}, "[20]": {"system": "K562"}, "[21]": {"system": "SNB-75"}, "[22]": {"system": "HT-29"}, "[23]": {"system": "XF498"}, "[24]": {"system": "SNB-78"}, "[25]": {"system": "COLO 205"}, "[26]": {"system": "SK-MEL-28"}, "[27]": {"system": "OVCAR-4"}, "[28]": {"system": "UACC-257"}, "[29]": {"system": "A498"}, "[30]": {"system": "DLD-1"}, "[31]": {"system": "IGROV-1"}, "[32]": {"system": "EKVX"}, "[33]": {"system": "M14"}, "[34]": {"system": "SN12C"}, "[35]": {"system": "Malme-3M"}, "[36]": {"system": "SK-MEL-5"}, "[37]": {"system": "CAKI-1"}, "[38]": {"system": "SF-295"}, "[39]": {"system": "LXFL 529"}, "[40]": {"system": "NCI-H23"}, "[41]": {"system": "UACC-62"}, "[42]": {"system": "HCC 2998"}, "[43]": {"system": "SK-OV-3"}, "[44]": {"system": "SK-MEL-2"}, "[45]": {"system": "OVCAR-5"}, "[46]": {"system": "TK-10"}, "[47]": {"system": "RPMI-8226"}, "[48]": {"system": "SNB-19"}, "[49]": {"system": "SF-268"}, "[50]": {"system": "U-251"}, "[51]": {"system": "HCT-116"}}, "note": "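Following 48 hours of exposure in 96-well plates, responses at five concentrations were used to interpolate endpoints linearly. The concentration for 50% growth inhibition is given as GI50.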 Activity calls are given as the source filed them. Rule as the data show it: active = GI50 up to about 1.1 µM and inactive = higher."}
{"smiles": "COc1cc2c(cc1OC)C(=O)Cc1ccc3c(c1CNCC2)OCO3", "values": [{"measurement": "GI50", "setting": "[1]", "result": "> 100 µM (inactive)"}, {"measurement": "GI50", "setting": "[2]", "result": "> 100 µM (inactive)"}, {"measurement": "GI50", "setting": "[3]", "result": "> 100 µM (inactive)"}, {"measurement": "GI50", "setting": "[4]", "result": "> 100 µM (inactive)"}, {"measurement": "GI50", "setting": "[5]", "result": "> 100 µM (inactive)"}, {"measurement": "GI50", "setting": "[6]", "result": "> 100 µM (inactive)"}, {"measurement": "GI50", "setting": "[7]", "result": "> 100 µM (inactive)"}, {"measurement": "GI50", "setting": "[8]", "result": "> 100 µM (inactive)"}, {"measurement": "GI50", "setting": "[9]", "result": "> 100", "unit": "µM"}, {"measurement": "GI50", "setting": "[10]", "result": "> 100 µM (inactive)"}, {"measurement": "GI50", "setting": "[11]", "result": "> 100 µM (inactive)"}, {"measurement": "GI50", "setting": "[12]", "result": "> 100 µM (inactive)"}, {"measurement": "GI50", "setting": "[13]", "result": "> 100 µM (inactive)"}, {"measurement": "GI50", "setting": "[14]", "result": "> 100 µM (inactive)"}, {"measurement": "GI50", "setting": "[15]", "result": "> 100 µM (inactive)"}, {"measurement": "GI50", "setting": "[16]", "result": "> 100 µM (inactive)"}, {"measurement": "GI50", "setting": "[17]", "result": "> 100 µM (inactive)"}, {"measurement": "GI50", "setting": "[18]", "result": "> 100 µM (inactive)"}, {"measurement": "GI50", "setting": "[19]", "result": "> 100 µM (inactive)"}, {"measurement": "GI50", "setting": "[20]", "result": "> 100 µM (inactive)"}, {"measurement": "GI50", "setting": "[21]", "result": "> 100 µM (inactive)"}, {"measurement": "GI50", "setting": "[22]", "result": "> 100 µM (inactive)"}, {"measurement": "GI50", "setting": "[23]", "result": "> 100 µM (inactive)"}, {"measurement": "GI50", "setting": "[24]", "result": "> 100 µM (inactive)"}, {"measurement": "GI50", "setting": "[25]", "result": "> 100 µM (inactive)"}, {"measurement": "GI50", "setting": "[26]", "result": "> 100 µM (inactive)"}, {"measurement": "GI50", "setting": "[27]", "result": "> 100 µM (inactive)"}, {"measurement": "GI50", "setting": "[28]", "result": "> 100 µM (inactive)"}, {"measurement": "GI50", "setting": "[29]", "result": "> 100 µM (inactive)"}, {"measurement": "GI50", "setting": "[30]", "result": "> 100 µM (inactive)"}, {"measurement": "GI50", "setting": "[31]", "result": "> 100 µM (inactive)"}, {"measurement": "GI50", "setting": "[32]", "result": "> 100 µM (inactive)"}, {"measurement": "GI50", "setting": "[33]", "result": "> 100 µM (inactive)"}, {"measurement": "GI50", "setting": "[34]", "result": "> 100 µM (inactive)"}, {"measurement": "GI50", "setting": "[35]", "result": "> 100 µM (inactive)"}, {"measurement": "GI50", "setting": "[36]", "result": "> 100 µM (inactive)"}, {"measurement": "GI50", "setting": "[37]", "result": "> 100 µM (inactive)"}, {"measurement": "GI50", "setting": "[38]", "result": "> 100 µM (inactive)"}, {"measurement": "GI50", "setting": "[39]", "result": "> 100 µM (inactive)"}, {"measurement": "GI50", "setting": "[40]", "result": "> 100 µM (inactive)"}, {"measurement": "GI50", "setting": "[41]", "result": "> 100 µM (inactive)"}, {"measurement": "GI50", "setting": "[42]", "result": "> 100 µM (inactive)"}, {"measurement": "GI50", "setting": "[43]", "result": "> 100 µM (inactive)"}, {"measurement": "GI50", "setting": "[44]", "result": "> 100 µM (inactive)"}, {"measurement": "GI50", "setting": "[45]", "result": "> 100 µM (inactive)"}, {"measurement": "GI50", "setting": "[46]", "result": "> 100 µM (inactive)"}, {"measurement": "GI50", "setting": "[47]", "result": "> 100 µM (inactive)"}, {"measurement": "GI50", "setting": "[48]", "result": "> 100 µM (inactive)"}, {"measurement": "GI50", "setting": "[49]", "result": "> 100 µM (inactive)"}, {"measurement": "GI50", "setting": "[50]", "result": "> 100 µM (inactive)"}, {"measurement": "GI50", "setting": "[51]", "result": "> 100 µM (inactive)"}]}
{"smiles": "CN(C)c1ccc(/C=C/C(=O)C(C)(C)C)cc1Br", "values": [{"measurement": "GI50", "setting": "[1]", "result": "39.9 µM (inactive)"}, {"measurement": "GI50", "setting": "[2]", "result": "25.6 µM (inactive)"}, {"measurement": "GI50", "setting": "[3]", "result": "27.7 µM (inactive)"}, {"measurement": "GI50", "setting": "[4]", "result": "16.1 µM (inactive)"}, {"measurement": "GI50", "setting": "[5]", "result": "24 µM (inactive)"}, {"measurement": "GI50", "setting": "[6]", "result": "33.3 µM (inactive)"}, {"measurement": "GI50", "setting": "[7]", "result": "63.5 µM (inactive)"}, {"measurement": "GI50", "setting": "[8]", "result": "25.1 µM (inactive)"}, {"measurement": "GI50", "setting": "[9]", "result": 19.9, "unit": "µM"}, {"measurement": "GI50", "setting": "[10]", "result": "24.6 µM (inactive)"}, {"measurement": "GI50", "setting": "[11]", "result": "21.8 µM (inactive)"}, {"measurement": "GI50", "setting": "[12]", "result": "> 100 µM (inactive)"}, {"measurement": "GI50", "setting": "[13]", "result": "35.8 µM (inactive)"}, {"measurement": "GI50", "setting": "[14]", "result": "24.1 µM (inactive)"}, {"measurement": "GI50", "setting": "[15]", "result": "21.2 µM (inactive)"}, {"measurement": "GI50", "setting": "[16]", "result": "18.5 µM (inactive)"}, {"measurement": "GI50", "setting": "[17]", "result": "31.5 µM (inactive)"}, {"measurement": "GI50", "setting": "[18]", "result": "32.1 µM (inactive)"}, {"measurement": "GI50", "setting": "[19]", "result": "19.8 µM (inactive)"}, {"measurement": "GI50", "setting": "[20]", "result": "25.2 µM (inactive)"}, {"measurement": "GI50", "setting": "[21]", "result": "20.1 µM (inactive)"}, {"measurement": "GI50", "setting": "[22]", "result": "31.8 µM (inactive)"}, {"measurement": "GI50", "setting": "[23]", "result": "15 µM (inactive)"}, {"measurement": "GI50", "setting": "[24]", "result": "44.2 µM (inactive)"}, {"measurement": "GI50", "setting": "[25]", "result": "25.7 µM (inactive)"}, {"measurement": "GI50", "setting": "[26]", "result": "17.8 µM (inactive)"}, {"measurement": "GI50", "setting": "[27]", "result": "19.9 µM (inactive)"}, {"measurement": "GI50", "setting": "[28]", "result": "24 µM (inactive)"}, {"measurement": "GI50", "setting": "[29]", "result": "41.1 µM (inactive)"}, {"measurement": "GI50", "setting": "[30]", "result": "18.7 µM (inactive)"}, {"measurement": "GI50", "setting": "[31]", "result": "35.4 µM (inactive)"}, {"measurement": "GI50", "setting": "[32]", "result": "44.4 µM (inactive)"}, {"measurement": "GI50", "setting": "[33]", "result": "18.9 µM (inactive)"}, {"measurement": "GI50", "setting": "[34]", "result": "24.9 µM (inactive)"}, {"measurement": "GI50", "setting": "[35]", "result": "28.4 µM (inactive)"}, {"measurement": "GI50", "setting": "[36]", "result": "18.7 µM (inactive)"}, {"measurement": "GI50", "setting": "[37]", "result": "23.9 µM (inactive)"}, {"measurement": "GI50", "setting": "[38]", "result": "40.3 µM (inactive)"}, {"measurement": "GI50", "setting": "[39]", "result": "30 µM (inactive)"}, {"measurement": "GI50", "setting": "[40]", "result": "26.1 µM (inactive)"}, {"measurement": "GI50", "setting": "[41]", "result": "16.7 µM (inactive)"}, {"measurement": "GI50", "setting": "[42]", "result": "27.4 µM (inactive)"}, {"measurement": "GI50", "setting": "[43]", "result": "52.1 µM (inactive)"}, {"measurement": "GI50", "setting": "[44]", "result": "18.9 µM (inactive)"}, {"measurement": "GI50", "setting": "[45]", "result": "49 µM (inactive)"}, {"measurement": "GI50", "setting": "[46]", "result": "30.8 µM (inactive)"}, {"measurement": "GI50", "setting": "[47]", "result": "19.5 µM (inactive)"}, {"measurement": "GI50", "setting": "[48]", "result": "31.6 µM (inactive)"}, {"measurement": "GI50", "setting": "[49]", "result": "20.3 µM (inactive)"}, {"measurement": "GI50", "setting": "[50]", "result": "27.4 µM (inactive)"}, {"measurement": "GI50", "setting": "[51]", "result": "17.7 µM (inactive)"}]}
